Measured values from patent US8048889B2, “3,4-disubstituted coumarin and quinolone compounds” (XTL Biopharmaceuticals Ltd., priority 2005, dated 2011).

What was measured:
[1] = system: Huh-Luc-Neo cells; assay: CellTiter-Glo Cell Viability Assay; format: cell-based, human; settings: for Toxicity % Inhibition at 50 uM (2 doses): inhibition of cell viability at 50 uM, conditions as in Replicon RNA Assay; for Toxicity % Inhibition at 100 um (1 dose): inhibition of cell viability at 100 um, conditions as in Replicon Luciferase Assay (48 h)
Protocol: (§1) Day 2 Reagent Preparation and Luciferase Assay: The Bright-Glo Luciferase Assay Buffer (Promega) is thawed and equilibrated to room temperature prior to use. The lyophilized Bright-Glo Luciferase Assay Substrate is equilibrated to room temperature prior to use. 10 ml of Bright-Glo Luciferase Assay Buffer is transferred to 1 vial of Bright-Glo Luciferase Assay Substrate bottle and mixed by gently with a Vortex. 100 ul of Bright-Glo Luciferase Assay reagent (Bright-Glo Luciferase Assay Buffer+Bright-Glo Luciferase Assay Substrate Mixture) is added to each well. The well contents are mixed for 5 min. on an orbital shaker at room temperature to induce cell lysis and the luminescence is then measured using a luminometer. The data is analyzed and IC50s are determined using GraphPad Prism 4 software. Hits validated in the Replicon Luciferase assay have IC50s<8.0 μM and show<30% inhibition of Cell Viability at a compound concentration of 100 μM (Cell Titer Glow Assay, cell viability assay conditions identical to HCV Replicon Luciferase Assay conditions).
(§2) Day 3, Quantitative PCR Based Measurement of HCV RNA (Taqman Assay): Quantitative PCR analysis to measure HCV RNA expression from cDNA synthesized on Day 2 is performed using the ABI 9700 HT Sequence Detection System (Applied Biosystems) as previously described (Lohman et al, Science 285, 110-113, 1999). The data is analyzed and IC50s are determined using GraphPad Prism 4 software. Hits validated in the Replicon RNA Assay have IC50s<8.0 μM and show <30% inhibition of Cell Viability at a compound concentration of 50 μM (Cell Titer Glow Assay, cell viability assay conditions identical to HCV Replicon RNA Assay conditions).
(§3) Day 0, Cell Seeding and Compound Treatment: Huh-Luc-Neo Cells are seeded at 25,000/well in an opaque-walled 96 plate with Growth Medium (DMEM phenol red free+PS+2 mM glutamine; 100 ul/well). The compounds to be tested for inhibition of cell viability are added to the experimental wells (10 μl/well at 10× assay concentration) and the cells are then incubated (5% CO2, 37° C.) for 48 h.
Day 2, Reagent Preparation and Assay: The CellTiter-Glo Buffer is thawed and equilibrated to room temperature prior to use. The lyophilized CellTiter-Glo Substrate is equilibrated to room temperature prior to use. 10 ml of CeliTiter-Glo Buffer is transferred to 1 vial of CellTiter-Glo Substrate and mixed by gently with a Vortex. 100 μl of CellTiter-Glo Assay reagent (CellTiter-Glo Buffer+CellTiter-Glo Substrate Mixture) is added to each well. The well contents are mixed for 5 min. on an orbital shaker at room temperature to induce cell lysis and the luminescence is then measured using a luminometer.

[2] = system: HCV Replicon (HCV IRES driven luciferase reporter in Huh-Luc-Neo cells); assay: HCV Replicon Luciferase Assay; format: cell-based; settings: Hepatitis C virus, 48 h, no unit in table, hit threshold in μM
Protocol: (§4) The identification of inhibitors of HCV replication and/or proliferation has been facilitated by the development of a cell based system to study HCV replication and assay for HCV inhibitors. Inhibition of HCV replication may be performed using the HCV Replicon Assay developed in the laboratories of Bartenschlager (Lohman et al, Science 285, 110-113, 1999) and Rice (Blight et al, Science 290, 1972-1974, 2000). The assay is performed using the Huh-Luc-Neo cell line (Lohman et al, Science 285, 110-113, 1999). Huh-Luc-Neo cells are a human hepatoma cell line (Huh-7) stably expressing a bi-cistronic subgenomic replicon containing the HCV IRES in which the structural proteins of HCV had been deleted and replaced by a construct containing sequences coding for the firefly luciferase reporter gene, the neomycin selectable marker and the EMCV IRES to direct expression of a truncated HCV genome expressing the […] NS3, NS4A, NS4B, NS5A, and NS5B. HCV targets through which inhibitors could act to inhibit replication include the NS3 protease, the helicase/ATPase, NS5A, the NS5B- RNA dependent RNA polymerase, and the HCV IRES.
(§5) Expression of HCV IRES driven luciferase reporter activity and HCV RNA is measured to obtain indirect and direct measures of replication of HCV RNA respectively. Inhibitors of HCV replication and/or proliferation are determined by initially identifying molecules that inhibit expression of the HCV IRES driven luciferase reporter in this HCV Replicon Luciferase Assay. Cell viability assays and control cell based luciferase assays are then run on hits identified in the HCV Replicon Luciferase Assay to eliminate cytoxic compounds and non-specific compounds which act by inhibiting the luciferase enzyme.
as §3, with “0” for “0,”, “μl/well).” for “ul/well).”, “tested” for “tested for inhibition of cell viability”
as §1

[3] = system: HCV Replicon (HCV RNA in Huh-Luc-Neo cells); assay: HCV Replicon RNA Assay (Taqman); format: cell-based, Hepatitis C virus; settings: Hepatitis C virus, compound added day 0 and day 1, no unit in table, hit threshold in μM
Protocol: as §4, §5
as §3, with “μl/well).” for “ul/well).”, “tested” for “tested for inhibition of cell viability”, “C.).” for “C.) for 48 h.”
Day 1, Media Change and Compound Treatment: 24 hours after the initial compound treatment the cell culture media is aspirated from the wells and fresh Growth Medium is added (DMEM phenol red free+PS+2 mM glutamine; 100 μl/well). The compounds to be tested are then added to the appropriate experimental wells (10 μl/well at 10 × assay concentration) and the cells are then incubated (5% CO2, 37° C.) for an additional 24 hrs.
Day 2, RNA Isolation and cDNA Synthesis: The cells are washed with 1× Phosphate Buffered Saline (PBS) once.
as §2

| Compound | Toxicity % Inhibition at 50 uM (2 doses) [1] [%] | Toxicity % Inhibition at 100 um (1 dose) [1] [%] | IC50 [2] [µM] | IC50 [3] [µM] |
| --- | --- | --- | --- | --- |
| COc1ccc(Nc2c(/C=N/c3ccc(C)cc3)c(=O)oc3ccccc23)cc1 [VQ_36472] | 6.5 | 5.9 | 0.03 | 0.85 |
| COc1ccc(/N=C/c2c(Nc3ccc(OC)cc3)c3ccccc3oc2=O)cc1 [VQ_36473] | 10.7 | 4.3 | 0.02 | 1.71 |
| COc1ccc(Nc2c(/C=N/c3cc(Cl)cc(Cl)c3)c(=O)oc3ccccc23)cc1 [VQ_36594] | 13.7 | 9.1 | 0.74 | > 30 |
